In PubChem BioAssay AID602129 (The Scripps Research Institute Molecular Screening Center, 2011):
The source made the active and inactive calls. How the calls were made is not given here.

Target: Mucolipin-3 (Homo sapiens) (UniProt Q8TDD5)
Assay: activators of human MCOLN3 channel – cell-based, fluorescence, dose response, round 3, late-stage follow-up (AID 602129)
Conditions: HEK293 TRPML3 cells, calcium fluorescence

Chain of Mucolipin-3 (Homo sapiens) (Q8TDD5 whole entry, looked up): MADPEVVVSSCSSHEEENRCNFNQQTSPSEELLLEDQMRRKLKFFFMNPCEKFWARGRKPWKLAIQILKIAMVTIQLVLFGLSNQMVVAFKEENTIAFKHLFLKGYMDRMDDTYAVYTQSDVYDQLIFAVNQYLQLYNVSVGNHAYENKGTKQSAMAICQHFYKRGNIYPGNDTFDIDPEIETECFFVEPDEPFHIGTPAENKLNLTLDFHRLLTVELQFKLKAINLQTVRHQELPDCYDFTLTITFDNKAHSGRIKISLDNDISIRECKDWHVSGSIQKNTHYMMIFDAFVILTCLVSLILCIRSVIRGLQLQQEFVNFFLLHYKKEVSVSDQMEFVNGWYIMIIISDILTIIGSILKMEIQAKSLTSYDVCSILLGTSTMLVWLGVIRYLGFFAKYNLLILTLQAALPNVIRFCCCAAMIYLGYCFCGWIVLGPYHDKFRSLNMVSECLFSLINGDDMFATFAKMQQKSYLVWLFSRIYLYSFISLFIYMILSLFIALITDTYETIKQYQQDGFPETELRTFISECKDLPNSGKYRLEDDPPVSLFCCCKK

| EC50 | Structure (SMILES) |
| --- | --- |
| 3.34 µM | Cc1onc(-c2ccc(Cl)cc2)c1-c1ccn(S(=O)(=O)c2cccc(C(F)(F)F)c2)n1 |
| > 29.9 µM (inactive) | CCOc1ccc(S(=O)(=O)N2CCN(c3ccccc3Cl)CC2)c2ccccc12 |
| > 29.9 µM (inactive) | Cc1ccc(S(=O)(=O)n2nccc2-c2c(-c3ccccc3)noc2C)cc1 |
| 3.58 µM | Cc1onc(-c2ccc(Cl)cc2)c1-c1ccn(S(=O)(=O)c2ccccc2C(F)(F)F)n1 |
| > 29.9 µM (inactive) | CCOc1ccc(S(=O)(=O)NCc2ccc(OC)cc2)c2ccccc12 |
| > 29.9 µM (inactive) | CCOc1ccc(S(=O)(=O)NCc2ccncc2)c2ccccc12 |
| > 29.9 µM (inactive) | CCOc1ccc(S(=O)(=O)N(CC)CC)c2ccccc12 |
| > 29.9 µM (inactive) | CCCCNS(=O)(=O)c1ccc(OCC)c2ccccc12 |
| 0.68 µM | Cc1ccc(S(=O)(=O)n2ccc(-c3c(-c4ccc(F)cc4)noc3C)n2)cc1 |
| > 29.9 µM (inactive) | Cc1onc(-c2ccc(Cl)cc2)c1-c1ccn(S(=O)(=O)c2cccs2)n1 |
| 3.78 µM | COc1ccc(S(=O)(=O)n2ccc(-c3c(-c4ccc(Cl)cc4)noc3C)n2)cc1 |
| 1.53 µM | Cc1onc(-c2ccc(Cl)cc2)c1-c1ccn(S(=O)(=O)c2ccccc2Cl)n1 |
| > 29.9 µM (inactive) | Cc1onc(-c2ccc(Cl)cc2)c1-c1ccn(S(C)(=O)=O)n1 |
| 0.476 µM | COc1ccc(S(=O)(=O)N2CCCCCC2)c2ccccc12 |
| > 29.9 µM (inactive) | CCOc1ccc(S(=O)(=O)N2CCCC2)c2ccccc12 |
| > 29.9 µM (inactive) | Cc1onc(-c2ccc(Cl)cc2)c1-c1ccnn1S(=O)(=O)c1ccc(Cl)cc1 |
| > 29.9 µM (inactive) | CCOc1ccc(S(=O)(=O)N2CCN(C(=O)OC(C)(C)C)CC2)c2ccccc12 |

| EC50 | Structure (SMILES) |
| --- | --- |
| 1.95 µM | Cc1onc(-c2ccc(Cl)cc2)c1-c1ccn(S(=O)(=O)c2cccc(Cl)c2)n1 |
| > 29.9 µM (inactive) | CCOc1ccc(S(=O)(=O)N2CCSCC2)c2ccccc12 |
| inactive | Cc1onc(-c2ccc(Cl)cc2)c1-c1ccn(S(=O)(=O)c2ccc(Cl)cc2)n1 |
| > 29.9 µM (inactive) | CCOc1ccc(S(=O)(=O)n2ccc(-c3c(-c4ccc(Cl)cc4)noc3C)n2)c2ccccc12 |
| inactive | CC(C)Oc1ccc(S(=O)(=O)N2CCCCCC2)c2ccccc12 |
| > 29.9 µM (inactive) | Cc1onc(-c2ccc(Cl)cc2)c1-c1ccnn1S(=O)(=O)c1cccc(C(F)(F)F)c1 |
| 3.46 µM | CCOc1ccc(S(=O)(=O)N2CCCCC2)c2ccccc12 |
| > 29.9 µM (inactive) | Cc1onc(-c2ccc(Cl)cc2)c1-c1ccn(S(=O)(=O)c2ccc(C(F)(F)F)cc2)n1 |
| > 29.9 µM (inactive) | CCOc1ccc(S(=O)(=O)N2CCOCC2)c2ccccc12 |
| > 29.9 µM (inactive) | Cc1onc(-c2ccccc2)c1-c1ccn(S(=O)(=O)c2ccc(Cl)cc2)n1 |
| > 29.9 µM (inactive) | Cc1onc(-c2ccc(Cl)cc2)c1-c1ccn(S(=O)(=O)c2cccc3cccnc23)n1 |
| 2.99 µM | COc1ccc(-c2noc(C)c2-c2ccn(S(=O)(=O)c3ccc(C)cc3)n2)cc1 |
| 1.46 µM | Cc1ccc(S(=O)(=O)n2ccc(-c3c(-c4ccccc4)noc3C)n2)cc1 |
| 4.86 µM | Cc1ccccc1S(=O)(=O)n1ccc(-c2c(-c3ccc(Cl)cc3)noc2C)n1 |
| 2.39 µM | Cc1onc(-c2ccc(Cl)cc2)c1-c1ccn(S(=O)(=O)c2ccccc2)n1 |
| > 29.9 µM (inactive) | Cc1onc(-c2ccccc2)c1-c1ccnn1S(=O)(=O)c1ccc(Cl)cc1 |
| > 29.9 µM (inactive) | Cc1onc(-c2ccc(Cl)cc2)c1-c1ccn(S(=O)(=O)C(F)(F)F)n1 |
